Reference: US10233191B2, “Fused piperidine amides as modulators of ion channels” (Vertex Pharmaceuticals Incorporated, priority 2013, dated 2019)

Target: T1, NaV 1.7 (Homo sapiens, UniProt Q15858)
T1 construct: expressed in transfected cells; host or cells: HEK cells
Assay: E-VIPR optical membrane potential assay with electrical stimulation
Format: cell-based
Details: active against one or more sodium channels; assay/subtype not specified in Table 4; read-out: IC50 Binned Activity Data
Text: E-VIPR Optical Membrane Potential Assay Method with Electrical Stimulation
Sodium channels are voltage-dependent proteins that can be activated by inducing membrane voltage changes by applying electric fields. The electrical stimulation instrument and methods of use are described in Ion Channel Assay Methods PCT/US01/21652, herein incorporated by reference and are referred to as E-VIPR. The instrument comprises a microtiter plate handler, an optical system for exciting the coumarin dye while simultaneously recording the coumarin and oxonol emissions, a waveform generator, a current- or voltage-controlled amplifier, and a device for inserting electrodes in well. Under integrated computer control, this instrument passes user-programmed electrical stimulus protocols to cells within the wells of the microtiter plate.
24 hours before the assay on E-VIPR, HEK cells expressing human NaV subtype, like NaV 1.7, are seeded in 384-well poly-lysine coated plates at 15,000-20,000 cells per well. Other subtypes are performed in an analogous mode in a cell line expressing the NaV of interest. HEK cells are grown in media (exact composition is specific to each cell type and NaV subtype) supplemented with 10% FBS (Fetal Bovine Serum, qualified; GibcoBRL #16140-071) and 1% Pen-Strep (Penicillin-Streptomycin; GibcoBRL #15140-122). Cells are grown in vented cap flasks, in 90% humidity and 10% CO2, to 100% confluence. They are usually split by trypsinization 1:10 or 1:20, depending on scheduling needs, and grown for 2-3 days before the next split.
• 100 mg/mL Pluronic F-127 (Sigma #P2443), in dry DMSO • Compound Plates: 384-well round bottom plate, e.g. Corning 384-well Polypropylene Round Bottom #3656 • Cell Plates: 384-well tissue culture treated plate, e.g. Greiner #781091-1B • 10 mM DiSBAC6(3) (Aurora #00-100-010) in dry DMSO • 10 mM CC2-DMPE (Aurora #00-100-008) in dry DMSO • 200 mM ABSC1 in H2O
Bath1 buffer. Glucose 10 mM (1.8 g/L), Magnesium Chloride (Anhydrous), 1 mM (0.095 g/L), Calcium Chloride, 2 mM (0.222 g/L), HEPES 10 mM (2.38 g/L), Potassium Chloride, 4.5 mM (0.335 g/L), Sodium Chloride 160 mM (9.35 g/L).
Hexyl Dye Solution: Bath1 Buffer+0.5% β-cyclodextrin (make this prior to use, Sigma #C4767), 8 μM CC2-DMPE+2.5 μM DiSBAC6(3). To make the solution Add volume of 10% Pluronic F127 stock equal to volumes of CC2-DMPE+DiSBAC6(3). The order of preparation is first mix Pluronic and CC2-DMPE, then add DiSBAC6(3) while vortexing, then add Bath1+β-Cyclodextrin.
1) Pre-spot compounds (in neat DMSO) into compound plates. Vehicle control (neat DMSO), the positive control (20 mM DMSO stock tetracaine, 125 μM final in assay) and test compounds are added to each well at 160× desired final concentration in neat DMSO. Final compound plate volume will be 80 μL (80-fold intermediate dilution from 1 μL DMSO spot; 160-fold final dilution after transfer to cell plate). Final DMSO concentration for all wells in assay is 0.625%.
2) Prepare Hexyl Dye Solution.
3) Prepare cell plates. On the day of the assay, medium is aspirated and cells are washed three times with 100 μL of Bath1 Solution, maintaining 25 μL residual volume in each well.
4) Dispense 25 μL per well of Hexyl Dye Solution into cell plates. Incubate for 20-35 minutes at room temp or ambient conditions.
5) Dispense 80 μL per well of Bath1 into compound plates. Acid Yellow-17 (1 mM) is added and Potassium Chloride can be altered from 4.5 to 20 mM depending on the NaV subtype and assay sensitivity.
6) Wash cell plates three times with 100 μL per well of Bath1, leaving 25 μL of residual volume. Then transfer 25 uL per well from Compound Plates to Cell Plates. Incubate for 20-35 minutes at room temp/ambient condition
7) Read Plate on E-VIPR. Use the current-controlled amplifier to deliver stimulation wave pulses for typically 9 seconds and a scan rate of 400 Hz. A pre-stimulus recording is performed for 0.5 seconds to obtain the un-stimulated intensities baseline. […]

T1 sequence (Q15858 whole entry): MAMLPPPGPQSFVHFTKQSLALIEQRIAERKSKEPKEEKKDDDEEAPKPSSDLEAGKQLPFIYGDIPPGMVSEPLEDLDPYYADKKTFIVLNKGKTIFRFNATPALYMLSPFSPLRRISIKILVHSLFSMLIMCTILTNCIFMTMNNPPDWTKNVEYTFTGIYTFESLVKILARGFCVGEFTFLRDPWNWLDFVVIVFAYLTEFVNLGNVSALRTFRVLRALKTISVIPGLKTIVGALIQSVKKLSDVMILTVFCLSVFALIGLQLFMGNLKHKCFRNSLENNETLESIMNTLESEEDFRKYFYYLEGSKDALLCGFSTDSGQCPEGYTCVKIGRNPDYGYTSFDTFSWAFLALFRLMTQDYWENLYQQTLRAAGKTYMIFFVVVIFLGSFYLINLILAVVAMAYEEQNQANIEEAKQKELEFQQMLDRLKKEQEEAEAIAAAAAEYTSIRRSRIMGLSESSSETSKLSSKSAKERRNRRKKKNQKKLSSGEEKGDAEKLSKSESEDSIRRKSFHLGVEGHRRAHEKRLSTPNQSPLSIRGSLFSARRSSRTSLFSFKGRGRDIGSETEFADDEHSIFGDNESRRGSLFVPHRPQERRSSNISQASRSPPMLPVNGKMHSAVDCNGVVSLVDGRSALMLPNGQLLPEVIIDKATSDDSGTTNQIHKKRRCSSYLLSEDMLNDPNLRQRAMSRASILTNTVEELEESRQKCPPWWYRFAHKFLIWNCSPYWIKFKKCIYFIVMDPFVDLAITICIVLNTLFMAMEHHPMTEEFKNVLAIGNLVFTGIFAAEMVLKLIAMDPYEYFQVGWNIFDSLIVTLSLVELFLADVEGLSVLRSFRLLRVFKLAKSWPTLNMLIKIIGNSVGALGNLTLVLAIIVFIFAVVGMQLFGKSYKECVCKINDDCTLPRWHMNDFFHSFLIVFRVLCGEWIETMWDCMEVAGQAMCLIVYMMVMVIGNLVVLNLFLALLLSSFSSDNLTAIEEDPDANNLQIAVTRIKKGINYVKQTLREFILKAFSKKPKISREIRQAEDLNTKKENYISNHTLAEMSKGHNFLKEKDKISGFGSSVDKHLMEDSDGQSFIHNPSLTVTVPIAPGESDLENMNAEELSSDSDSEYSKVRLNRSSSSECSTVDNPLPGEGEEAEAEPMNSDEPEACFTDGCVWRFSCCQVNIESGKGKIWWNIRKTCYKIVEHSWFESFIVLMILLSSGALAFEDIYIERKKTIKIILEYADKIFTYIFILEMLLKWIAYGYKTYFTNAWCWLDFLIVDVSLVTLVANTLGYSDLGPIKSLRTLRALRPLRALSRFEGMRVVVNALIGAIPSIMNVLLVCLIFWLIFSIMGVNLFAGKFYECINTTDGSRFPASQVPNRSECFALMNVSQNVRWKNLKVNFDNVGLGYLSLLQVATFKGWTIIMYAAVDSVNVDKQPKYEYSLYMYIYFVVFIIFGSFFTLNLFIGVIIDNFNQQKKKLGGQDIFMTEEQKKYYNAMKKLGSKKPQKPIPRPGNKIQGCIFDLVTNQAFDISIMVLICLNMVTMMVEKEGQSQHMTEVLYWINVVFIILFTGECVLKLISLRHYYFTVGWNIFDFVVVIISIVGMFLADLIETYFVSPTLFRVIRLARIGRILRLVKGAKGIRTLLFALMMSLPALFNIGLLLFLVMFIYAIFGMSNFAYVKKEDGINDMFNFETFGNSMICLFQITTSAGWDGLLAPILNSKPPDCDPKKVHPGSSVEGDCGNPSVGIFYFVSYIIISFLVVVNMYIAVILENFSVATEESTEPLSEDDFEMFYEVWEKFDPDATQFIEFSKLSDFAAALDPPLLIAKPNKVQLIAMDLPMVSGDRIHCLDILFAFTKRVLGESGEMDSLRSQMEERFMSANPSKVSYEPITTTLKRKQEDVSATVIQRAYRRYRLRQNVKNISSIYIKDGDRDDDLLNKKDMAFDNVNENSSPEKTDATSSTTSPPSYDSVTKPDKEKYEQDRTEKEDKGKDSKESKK

| SMILES | IC50 [nM] |
| --- | --- |
| COc1ccnc(C23CCN(C(=O)c4ccc(OCCOC(F)(F)F)c(OC)c4)CC2OCO3)c1 (centres unmarked) [Compound 112] | ≤ 2000 |
| Cc1cc(C(=O)N2CCC3(c4ccccc4)CC3C2)ccc1C(C)(C)O (centres unmarked) [Compound 113] | ≤ 2000 |
| Cc1cc(C(=O)N2CC[C@@]3(c4ccccc4)C[C@@H]3C2)ccc1OCC(C)(C)O [Compound 114] | ≤ 2000 |
| COc1cc(C(=O)N2CCC3(c4ccccc4)CC3C2)ccc1C(C)(C)CO (centres unmarked) [Compound 115] | ≤ 2000 |
| O=C(c1ccc(OCCOC(F)(F)F)c(Cl)c1)N1CC[C@@]2(c3ccccn3)COC2C1 (some centres unmarked) [Compound 116] | ≤ 2000 |
| COc1cc(C(=O)N2CC[C@]3(c4ccccc4)OCOC3C2)ccc1OC(C)C(F)(F)F (some centres unmarked) [Compound 117] | ≤ 2000 |
| CCOc1nc(C(=O)N2CC[C@]3(c4nccs4)OCOC3C2)ccc1OCCOC(F)(F)F (some centres unmarked) [Compound 118] | ≤ 2000 |
| O=C(c1cc2n(n1)C(C(F)(F)F)CC(C1CC1)N2)N1CCC2(c3ccccc3)CC2C1 (centres unmarked) [Compound 119] | ≤ 2000 |
| Cc1cc(C(=O)N2CC[C@@]3(c4ccccc4)OCOC3C2)ccc1OCC(C)(C)F (some centres unmarked) [Compound 120] | ≤ 2000 |
| CC(C)(C)COc1ccc(C(=O)N2CC[C@]3(c4ccccn4)OCOC3C2)cc1Cl (some centres unmarked) [Compound 121] | ≤ 2000 |
| COc1cc(C(=O)N2CC[C@@]3(c4ccc(F)cc4)OCOC3C2)ccc1OCCOC(F)(F)F (some centres unmarked) [Compound 122] | ≤ 2000 |
| O=C(c1ccc(OCC(F)(F)C(F)F)c(C(F)(F)F)c1)N1CC[C@]2(c3ccccn3)OCOC2C1 (some centres unmarked) [Compound 123] | ≤ 2000 |
| Cc1cc(C(=O)N2CC[C@]3(c4ccc(F)cc4)OCOC3C2)ccc1OCC(C)(C)F (some centres unmarked) [Compound 124] | ≤ 2000 |
| COc1nc(C(=O)N2CCC3(c4ccccc4)CC3C2)ccc1OCC(C)(C)F (centres unmarked) [Compound 125] | ≤ 2000 |
| COc1nc(C(=O)N2CC[C@@]3(c4nccs4)OCOC3C2)ccc1OCCOC(F)(F)F (some centres unmarked) [Compound 126] | ≤ 2000 |
| CC(C)(F)COc1ccc(C(=O)N2CC[C@]3(c4ccccn4)OCO[C@@H]3C2)cc1C(F)(F)F [Compound 127] | ≤ 2000 |
| O=C(c1ccc(OCCC(F)(F)F)c(C(F)(F)F)c1)N1CC[C@]2(c3ccccn3)OCOC2C1 (some centres unmarked) [Compound 128] | ≤ 2000 |
| Cc1cc(C(=O)N2CC[C@]3(c4ncccc4F)OCOC3C2)ccc1OCCOC(F)(F)F (some centres unmarked) [Compound 129] | ≤ 2000 |
| COc1nc(C(=O)N2CC[C@]3(c4ccccn4)OCOC3C2)ccc1OCC1(C(F)(F)F)CC1 (some centres unmarked) [Compound 130] | ≤ 2000 |
| COc1cc(C(=O)N2CC[C@]3(c4cccc(Cl)c4)OCOC3C2)ccc1OCCC(F)(F)F (some centres unmarked) [Compound 131] | ≤ 2000 |
| COc1cc(C(=O)N2CC[C@]3(c4ccccc4)OCCOC3C2)ccc1OCCOC(F)(F)F (some centres unmarked) [Compound 132] | ≤ 2000 |
| Cc1cc(C(=O)N2CC[C@]3(c4ccccc4)C[C@@H]3C2)ccc1OCC(C)(C)O [Compound 133] | ≤ 2000 |
| Cc1nc(C(=O)N2CCC3(c4ccccc4)CC3C2)ccc1OC(C)C (centres unmarked) [Compound 134] | ≤ 2000 |
| O=C(c1ccc(OCC2CC2(F)F)c(Cl)c1)N1CC[C@]2(c3ccccn3)OCOC2C1 (some centres unmarked) [Compound 135] | ≤ 2000 |
| COc1cc(C(=O)N2CCC3(c4ccccc4)CC3C2)ccc1COCCC(F)(F)F (centres unmarked) [Compound 136] | ≤ 2000 |
| CCOc1nc(C(=O)N2CC[C@@]3(c4nccs4)OCOC3C2)ccc1OCCOC(F)(F)F (some centres unmarked) [Compound 137] | ≤ 2000 |
| O=C(c1ccc(OCCOC(F)(F)F)c(Cl)c1)N1CC[C@@]2(c3nccs3)OCOC2C1 (some centres unmarked) [Compound 138] | ≤ 2000 |

| SMILES | IC50 [nM] |
| --- | --- |
| COc1cc(C(=O)N2CC[C@]3(c4ccccc4)OCOC3C2)ccc1OCC1CC(F)(F)C1 (some centres unmarked) [Compound 139] | ≤ 2000 |
| O=C(c1ccc(OCCOC(F)(F)F)c(Cl)c1)N1CC[C@]2(c3nccs3)OCOC2C1 (some centres unmarked) [Compound 140] | ≤ 2000 |
| COc1cc(C(=O)N2CC[C@]3(c4cccc(Br)n4)OCOC3C2)ccc1OCCOC(F)(F)F (some centres unmarked) [Compound 141] | ≤ 2000 |
| Cc1cc(C(=O)N2CC[C@]3(c4cscn4)OCOC3C2)ccc1OCCOC(F)(F)F (some centres unmarked) [Compound 142] | ≤ 2000 |
| O=C(c1cccc2cccnc12)N1CCC2(c3ccccc3)CC2C1 (centres unmarked) [Compound 143] | ≤ 2000 |
| Cc1nc([C@]23CCN(C(=O)c4ccc(OCCOC(F)(F)F)c(C)c4)CC2OCO3)cs1 (some centres unmarked) [Compound 144] | ≤ 2000 |
| O=C(c1ccc(OCCOC(F)(F)F)c(Cl)c1)N1CC[C@]2(c3ncccc3F)OCOC2C1 (some centres unmarked) [Compound 145] | ≤ 2000 |
| O=C(c1ccc(OCC2CC(F)(F)C2)c(Cl)c1)N1CC[C@]2(c3ccccn3)OCOC2C1 (some centres unmarked) [Compound 146] | ≤ 2000 |
| COc1cc(C(=O)N2CCC3(c4ccccc4)CC3C2)ccc1C(C)(C)O (centres unmarked) [Compound 147] | ≤ 2000 |
| COc1cc(C(=O)N2CC[C@@]3(c4ccccc4)OCOC3C2)ccc1OCCOC(F)(F)F (some centres unmarked) [Compound 148] | ≤ 2000 |
| Cc1nc([C@]23CCN(C(=O)c4ccc(OCCOC(F)(F)F)c(Cl)c4)CC2OCO3)cs1 (some centres unmarked) [Compound 149] | ≤ 2000 |
| COc1cc(C(=O)N2CC[C@]3(c4ccccc4)OCOC3C2)ccc1OCCOC(F)(F)F (some centres unmarked) [Compound 150] | ≤ 2000 |
| COc1cc(C(=O)N2CCC3(c4ccccc4)CC3C2)ccc1OCCC(C)C (centres unmarked) [Compound 151] | ≤ 2000 |
| Cc1cc(C(=O)N2CC[C@]3(c4ncccc4Cl)OCOC3C2)ccc1OCC(C)(C)F (some centres unmarked) [Compound 152] | ≤ 2000 |
| COc1nc(C(=O)N2CC[C@]3(c4cc(C(F)(F)F)ccn4)OCOC3C2)ccc1OCCOC(F)(F)F (some centres unmarked) [Compound 153] | ≤ 2000 |
| COc1cc(C(=O)N2CC[C@]3(c4cccc(C)n4)OCOC3C2)ccc1OCCOC(F)(F)F (some centres unmarked) [Compound 154] | ≤ 2000 |
| COc1cc(C(=O)N2CC[C@]3(c4ncccc4Cl)OCOC3C2)ccc1OCCOC(F)(F)F (some centres unmarked) [Compound 155] | ≤ 2000 |
| CC(Oc1ccc(C(=O)N2CC[C@]3(c4ccccn4)OCOC3C2)cc1Cl)C(F)(F)F (some centres unmarked) [Compound 156] | ≤ 2000 |
| O=C(c1ccc(OCCOC(F)(F)F)c(Cl)c1)N1CC[C@]2(c3ccccn3)OCOC2C1 (some centres unmarked) [Compound 157] | ≤ 2000 |
| COc1cc(C(=O)N2CCC3(c4ccccc4)CC3C2)ccc1OCC(C)(C)F (centres unmarked) [Compound 158] | ≤ 2000 |
| [2H]C1([2H])OC2CN(C(=O)c3ccc(OCCOC(F)(F)F)c(OC)n3)CC[C@]2(c2ccccc2)O1 (some centres unmarked) [Compound 159] | ≤ 2000 |
| Cc1nc(C(=O)N2CC[C@]3(c4ccccn4)OCOC3C2)ccc1OCCOC(F)(F)F (some centres unmarked) [Compound 160] | ≤ 2000 |
| Cc1cc(C(=O)N2CC[C@]3(c4ccccc4)OCOC3C2)ccc1OCC(C)(C)F (some centres unmarked) [Compound 161] | ≤ 2000 |
| COc1nc(C(=O)N2CC[C@]3(c4cccc(F)c4F)OCOC3C2)ccc1OCCOC(F)(F)F (some centres unmarked) [Compound 162] | ≤ 2000 |
| COc1cc(C(=O)N2CC[C@]3(c4cc(F)ccc4F)OCOC3C2)ccc1OCCOC(F)(F)F (some centres unmarked) [Compound 163] | ≤ 2000 |
| CC(COc1ccc(C(=O)N2CC[C@]3(c4ccccn4)OCOC3C2)cc1Cl)CC(F)(F)F (some centres unmarked) [Compound 164] | ≤ 2000 |
